Measured values reported in US20240358692A1, “TREATMENT OF SCLERODERMA” (Aisa Pharma, Inc., priority 2023, published 2024).

System: participants with SSc-RP
Test: Average duration of weekly RP attacks (minutes), patient diary
Format: in vivo, human
Text: The absolute change in average duration of weekly RP attacks from baseline to the end of each dosing period was and will be a secondary outcome variable. The sponsor-developed participant-informed diary was and will be used to record data. Average duration of weekly RP attacks is defined as the total duration of RP attacks divided by total number of RP attacks within the last 7 days of each dosing period. Total duration of RP attacks during the last 7 days of screening period divided by the total number of RP attacks will be used as baseline for the analysis of all periods. The variable will be calculated similar to frequency data as before.

[1] = Pooled Cilnidipine 10 mg and Cilnidipine 10 mg + Tadalafil 5 mg, by Baseline RCS, first subgroup of table, ITT Population - Part A
[2] = Pooled Cilnidipine 10 mg and Cilnidipine 10 mg + Tadalafil 5 mg, by Baseline RCS, second subgroup of table, ITT Population - Part A
[3] = Pooled Cilnidipine 20 mg and Cilnidipine 20 mg + Tadalafil 5 mg, Excluding Outliers, ITT Population - Part A
[4] = Pooled Cilnidipine 20 mg and Cilnidipine 20 mg + Tadalafil 5 mg, Excluding Outliers, by Baseline RCS, second RCS subgroup of table (not named), ITT Population - Part A
[5] = Pooled Cilnidipine 20 mg and Cilnidipine 20 mg + Tadalafil 5 mg, by Baseline RCS, first subgroup of table, ITT Population - Part A
[6] = Pooled Cilnidipine 20 mg and Cilnidipine 20 mg + Tadalafil 5 mg, by Baseline RCS, second RCS subgroup of table (not named), ITT Population - Part A
[7] = Pooled Cilnidipine 20 mg and Cilnidipine 20 mg + Tadalafil 5 mg, by Baseline RCS, second subgroup of table, ITT Population - Part A
[8] = Pooled Cilnidipine 20 mg and Cilnidipine 20 mg + Tadalafil 5 mg, last 7 days of dosing period, ITT Part A
[9] = Pooled Cilnidipine, Excluding Outliers, ITT Population - Part A
[10] = Pooled Cilnidipine, Excluding Outliers, by Baseline RCS, first RCS subgroup of table (not named), ITT Population - Part A
[11] = Pooled Cilnidipine, ITT Population - Part A
[12] = Pooled Cilnidipine, ITT Population - Part A, last 7 days of dosing period
[13] = Pooled Cilnidipine, by Baseline RCS, first RCS subgroup of table (not named), ITT Population - Part A

COCCOC(=O)C1=C(C)NC(C)=C(C(=O)OC/C=C/c2ccccc2)C1c1cccc([N+](=O)[O-])c1 (centres unmarked) [Cilnidipine]
Average Duration of Weekly RP Attacks (All Attacks), Change from Baseline, Mean [1]: -4.13 min
Average Duration of Weekly RP Attacks (All Attacks), Change from Baseline, Median [1]: -4.13 min
Average Duration of Weekly RP Attacks (All Attacks), Mean [1]: 24.76 min
Average Duration of Weekly RP Attacks (All Attacks), Median [1]: 24.76 min
Average Duration of Weekly RP Attacks (All Attacks), Percent Change from Baseline, Mean [1]: −9.97%
Average Duration of Weekly RP Attacks (All Attacks), Percent Change from Baseline, Median [1]: −9.97%
Average Duration of Weekly RP Attacks (All Attacks), Change from Baseline, Mean [2]: -20.38 min
Average Duration of Weekly RP Attacks (All Attacks), Change from Baseline, Median [2]: -20.38 min
Average Duration of Weekly RP Attacks (All Attacks), Mean [2]: 34.17 min
Average Duration of Weekly RP Attacks (All Attacks), Median [2]: 34.17 min
Average Duration of Weekly RP Attacks (All Attacks), Percent Change from Baseline, Mean [2]: −37.36%
Average Duration of Weekly RP Attacks (All Attacks), Percent Change from Baseline, Median [2]: −37.36%
Average Duration of weekly symptomatic RP attacks, Mean (Pooled Cilnidipine 10 mg and Cilnidipine 10 mg + Tadalafil 5 mg, last 7 days of dosing period, ITT Part A): 29.46 min
Change from Baseline in average duration of weekly symptomatic RP attacks, Mean [3]: -7.51 min
Change from Baseline in average duration of weekly symptomatic RP attacks, Median [3]: -3.55 min
Percent Change from Baseline in average duration of weekly symptomatic RP attacks, Mean [3]: −16.40%
Percent Change from Baseline in average duration of weekly symptomatic RP attacks, Median [3]: −7.30%
Change from Baseline in average duration of weekly symptomatic RP attacks, Mean [4]: -27.00 min
Change from Baseline in average duration of weekly symptomatic RP attacks, Median [4]: -27.00 min
Percent Change from Baseline in average duration of weekly symptomatic RP attacks, Mean [4]: −30.00%
Percent Change from Baseline in average duration of weekly symptomatic RP attacks, Median [4]: −30.00%
Average Duration of Weekly RP Attacks (All Attacks), Change from Baseline, Mean [5]: 0.00 min
Average Duration of Weekly RP Attacks (All Attacks), Change from Baseline, Median [5]: 2.16 min
Average Duration of Weekly RP Attacks (All Attacks), Mean [5]: 15.91 min
Average Duration of Weekly RP Attacks (All Attacks), Median [5]: 14.27 min
Average Duration of Weekly RP Attacks (All Attacks), Percent Change from Baseline, Mean [5]: −10.70%
Average Duration of Weekly RP Attacks (All Attacks), Percent Change from Baseline, Median [5]: 17.86%
Change from Baseline in average duration of weekly symptomatic RP attacks, Mean [6]: -27.00 min
Change from Baseline in average duration of weekly symptomatic RP attacks, Median [6]: -27.00 min
Percent Change from Baseline in average duration of weekly symptomatic RP attacks, Mean [6]: −30.00%
Percent Change from Baseline in average duration of weekly symptomatic RP attacks, Median [6]: −30.00%
Average Duration of Weekly RP Attacks (All Attacks), Change from Baseline, Mean [7]: -19.09 min
Average Duration of Weekly RP Attacks (All Attacks), Change from Baseline, Median [7]: -19.09 min
Average Duration of Weekly RP Attacks (All Attacks), Mean [7]: 62.73 min
Average Duration of Weekly RP Attacks (All Attacks), Median [7]: 62.73 min
Average Duration of Weekly RP Attacks (All Attacks), Percent Change from Baseline, Mean [7]: −23.33%
Average Duration of Weekly RP Attacks (All Attacks), Percent Change from Baseline, Median [7]: −23.33%
Average Duration of weekly symptomatic RP attacks, Mean [8]: 27.98 min
Average Duration of weekly symptomatic RP attacks, Median [8]: 22.96 min
Duration (change) (Pooled Cilnidipine (n = 7)): 20%
Average Duration of weekly symptomatic RP attacks, Mean [9]: 21.70 min
Average Duration of weekly symptomatic RP attacks, Median [9]: 30.45 min
Percent Change from Baseline in average duration of weekly symptomatic RP attacks, Median [9]: −34.60%
Average Duration of weekly symptomatic RP attacks, Mean [10]: 21.70 min
Average Duration of weekly symptomatic RP attacks, Median [10]: 30.45 min
Change from Baseline in average duration of weekly symptomatic RP attacks, Mean [10]: -7.67 min
Change from Baseline in average duration of weekly symptomatic RP attacks, Median [10]: -10.33 min
Percent Change from Baseline in average duration of weekly symptomatic RP attacks, Mean [10]: −32.23%
Percent Change from Baseline in average duration of weekly symptomatic RP attacks, Median [10]: −34.60%
Average Duration of Weekly Symptomatic RP Attacks Change from Baseline, Mean (Pooled Cilnidipine, ITT Part A): -7.67 min
Average Duration of Weekly Symptomatic RP Attacks Change from Baseline, Median (Pooled Cilnidipine, ITT Part A): -10.33 min
Average Duration of Weekly Symptomatic RP Attacks Percent Change from Baseline, Mean (Pooled Cilnidipine, ITT Part A): −32.23%
Average Duration of Weekly Symptomatic RP Attacks Percent Change from Baseline, Median (Pooled Cilnidipine, ITT Part A): −34.60%
Average Duration of Weekly RP Attacks (All Attacks), Change from Baseline, Mean [11]: -3.55 min
Average Duration of Weekly RP Attacks (All Attacks), Change from Baseline, Median [11]: -7.63 min
Average Duration of Weekly RP Attacks (All Attacks), Percent Change from Baseline, Mean [11]: −23.71%
Average Duration of Weekly RP Attacks (All Attacks), Percent Change from Baseline, Median [11]: −21.20%
Average Duration of Weekly RP Attacks (All Attacks), Mean [12]: 21.66 min
Average Duration of Weekly RP Attacks (All Attacks), Median [12]: 30.45 min
Average Duration of weekly symptomatic RP attacks, Mean [13]: 21.70 min
Average Duration of weekly symptomatic RP attacks, Median [13]: 30.45 min
Change from Baseline in average duration of weekly symptomatic RP attacks, Mean [13]: -7.67 min
